Data published in EP1310250A1, “Use of the compound 2-methoxyphenyl-1-methyl-5P-methylbenzoyl-pyrrol-2-acetamido acetate for the production of an antiinflammatory drug with prevention of gastric hypersecretion and renal impairment” (MEDOSAN Ricerca S.r.l., priority 1997, dated 1999).

How the values were obtained:
H2 receptors = biological target: T1, H2 receptors (Cavia porcellus, UniProt P47747); experiment: Effect on H2 receptors of isolated atrium, histamine stimulation; settings: guinea-pig atrium, stimulation by histamine (fig. 5)
T1 construct: an organ in which only H2 receptors were present (guinea-pig atrium); from tissue; host or cells: guinea-pig atrium (isolated organ)
T1 sequence (P47747 whole entry): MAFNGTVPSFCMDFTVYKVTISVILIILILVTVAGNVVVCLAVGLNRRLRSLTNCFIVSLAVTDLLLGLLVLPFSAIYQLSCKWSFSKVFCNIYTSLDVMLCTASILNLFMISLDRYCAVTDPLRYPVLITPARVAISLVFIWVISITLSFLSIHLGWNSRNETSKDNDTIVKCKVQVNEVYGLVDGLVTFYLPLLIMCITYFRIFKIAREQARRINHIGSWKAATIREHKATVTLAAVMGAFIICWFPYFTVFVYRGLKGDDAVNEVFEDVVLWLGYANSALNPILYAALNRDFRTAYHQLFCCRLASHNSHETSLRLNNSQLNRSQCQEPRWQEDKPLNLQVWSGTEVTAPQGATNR
Description: On the basis of the above series of observations, we decided to study the pharmacological behaviour of a number of widely used NSAIDs (including amtolmetin guacyl) towards the gastric mucosa in the rat, as previously described. […] The first hypothesis was that we were deling with an anti-H2 drug, given the fact that its potency could be compared with that of cimetidine.

post-operative pain = experiment: Clinical trials: analgesic properties in post-operative pain; type: in vivo, man; set-up: key to Antiphlogistic activity evaluation: excellent ^++++; good ^+++; poor ^++
Procedure: As reported in Table 14, the analgesic properties of amtolmetin guacyl were tested in postoperative pain with good results. […] The peak effect is obtained only after 2 hours, and it is maintained for 6 hours.

## COc1ccccc1OC(=O)CNC(=O)Cc1ccc(C(=O)c2ccc(C)cc2)n1C [amtolmetin guacyl, 2-methoxyphenyl-1-methyl-5p-methylbenzoylpyrrol-2-acetamido acetate]
H2 receptors
  interference with the H2 receptors: did not interfere with the H2 receptors
post-operative pain
  Antiphlogistic activity evaluation: ^++++
  time for which the effect is maintained: 6 h
post-operative pain; 1200mg, 100 patients
  Duration: 360 min
  Latency: 30 min
  Max. time effect: 180 min
post-operative pain; following administration
  time at which the antalgic effect is already evaluable: 30 '
